Test results published in ChEMBL document CHEMBL1833928, “Metabolism evaluation of the anticancer candidate AC04 by biomimetic oxidative model and rat liver microsomes” (Eur J Med Chem, 2011).

Columns and labels:
[1] = tested on: CCRF S-180; test: Antitumor activity against mouse S180 cells xenografted in mouse assessed as reduction of tumor weight at 100 umol/kg/day, ip administered after 48 hrs of tumor inoculation qd for 8 days; type: functional; design: scale not given: the % may be the effect or the level left
[2] = tested on: Liver microsomes; test: Drug metabolism in Wistar rat liver microsomes assessed as 1-oxo-AC04 after 60 mins by LC-MS/MS analysis; type: ADME, Microsome; conditions: 1 h
[3] = tested on: Plasma; test: Drug metabolism in Wistar rat plasma assessed as 1-oxo-AC04 at 1.5 mg/kg, iv administered as single dose after 120 hrs by LC-MS/MS analysis; type: ADME, organism-based; design: dose 1.5 mg/kg, route intravenous; conditions: in vivo

Drug metabolism [2]: Active
Drug metabolism [3]: Active
Structure (SMILES): Cc1ccc(CN2C(=O)S/C(=C\c3c4ccccc4nc4ccccc34)C2=O)cc1
Activity [1]: 85%
